According to PMC2187893 (The Journal of Experimental Medicine, 1990):

Columns and labels:
Format in all cases: cell-based
[1] = system: human peripheral blood T lymphocytes; assay: T cell migration assay in microchemotaxis chamber; details: peptides at 10 -5 M in lower wells, 1.5 h at 37C, Fig. 3; Dunnett's test
[2] = system: human peripheral blood T cells; assay: Naloxone inhibition of T cell migration to stimuli; details: for Effect of naloxone on specific migration (percent response): naloxone-treated/nontreated x 100%; for Specific migration with naloxone / Specific migration without naloxone: spontaneous locomotion subtracted
[3] = system: human peripheral blood T lymphocytes; assay: Migration assay with or without concentration gradient
[4] = donor 5, stimulus at 10^-5 M, naloxone 10^-5 M
[5] = doses between 10-13 and 10^-9 M, migration only when a gradient existed
[6] = donor 4, stimulus at 10^-9 M, naloxone 10^-5 M

[n-Ala-2,N-Me-Phe4Met(o)4-01]-enkephalin [FK 33-824]
T cell migration response compared with spontaneous locomotion [1]: greater then spon- taneous locomotion

[D-Ser2Leu']- enkephalin Thb [DSLET]
T cell migration response compared with spontaneous locomotion [1]: greater then spon- taneous locomotion

Tyr-Gly-Gly-Phe-Leu [LEU-ENK, leucine-enkephalin]
T cell migration response compared with spontaneous locomotion [1]: stimulatory
Effect of naloxone on specific migration (percent response) [2, 4]: 18.4%
Specific migration with naloxone [2, 4]: 582
Specific migration without naloxone ([2]; donor 5, stimulus at 10^-5 M): 3,171
type of locomotion stimulated [3, 5]: chemotactic

C=CCN1CC[C@]23c4c5ccc(O)c4O[C@H]2C(=O)CC[C@@]3(O)[C@H]1C5 [naloxone, Naloxone]
effect of naloxone on locomotion caused by IL-2 ([2]; naloxone 10^-5 M, cells pretreated 15 h at 37C, IL-2 100 U/ml, Table 1): no effect
effect of naloxone on T cell migration in response to MET-ENK or LEU-ENK ([2]; naloxone 10^-5 M, cells pretreated 15 h at 37C, Table 1): inhibited

(D-Ala2, o- Leu']-enkephalin [DADLE]
T cell migration response compared with spontaneous locomotion [1]: greater then spon- taneous locomotion

cyclic [p-Pen2,n-Pen']-enkephalin [DPDPE]
T cell migration response compared with spontaneous locomotion [1]: greater then spon- taneous locomotion

H-Gly-Gly-Phe-Leu-OH [DesTyr-LEU-ENK]
T cell migration response compared with spontaneous locomotion [1]: no effect on T cell migration

[o-Ala2 ,MePhe4,Gly(ol)'j-enkephalin [DAGO]
T cell migration response compared with spontaneous locomotion [1]: greater then spon- taneous locomotion

/3-END: purified human beta-endorphin from Calbiochem-Behring Corp.; endogenous opioid neurohormone (YGGFMTSEKSQTPLVTLFKNAIIKNAYKKGE; Beta-endorphin; UniProt P01189 237-267, looked up)
T cell migration without gradient (stimulus in upper and lower chambers) ([3]; 10-9, 10^-7 and 10^-5 M, single donor, Fig. 2, p >0.05, NS): equivalent to the spontaneous locomotion
type of locomotion stimulated ([3]; beta-END, Fig. 2, 10^-9 to 10^-5 M): chemotactic

Tyr-Gly-Gly-Phe-Met [MET-ENK, methionine-enkephalin]
Specific migration with naloxone ([2]; donor 4, stimulus at 10- " M, naloxone 10^-5 M): 2
Specific migration without naloxone ([2]; donor 4, stimulus at 10- " M): 830
Effect of naloxone on specific migration (percent response) [2, 6]: 12.8%
Specific migration with naloxone [2, 6]: 335
Effect of naloxone on specific migration (percent response) [2, 4]: 24.8%
Specific migration with naloxone [2, 4]: 768
Specific migration without naloxone ([2]; donor 5, stimulus at 10^-5 M): 3,093
type of locomotion stimulated [3, 5]: chemotactic
